In US20100285959A1, “HERBICIDAL MIXTURES” (priority 2006, published 2010):

Tests used:
velvetleaf (ABUTH) = assay: Test 1 field trial, preemergence; format: in vivo, Abutilon theophrasti; parameters: scale not given here; conditions: g a.i./ha: Atrazine 1680, S-Metolachlor 1870
Description: (§1) Corn seeds (hybrid ‘Pioneer 34N43’) were planted in mid spring season, 3.8 cm deep in a silt loam soil having 4.6% organic matter and a pH of 6. Plots were 10.7 m long by 1.5 m wide with rows spaced 76 cm apart. Seeds were spaced 18 cm apart within the rows. The field was managed using conventional tillage practices. […] Results are summarized in Table 1 and are the means of the three replicates. […] Colby's Equation (Colby, S. R. “Calculating Synergistic and Antagonistic Responses of Herbicide Combinations,” Weeds, 15(1), pp 20-22 (1967)) calculates the expected additive effect of herbicidal mixtures, and for two active ingredients is of the form:
(§2) Pa+b=Pa+Pb−(PaPb/100) • wherein Pa+b is the percentage effect of the mixture expected from additive contribution of the individual components, • Pa is the observed percentage effect of the first active ingredient at the same use rate as in the mixture, and • Pb is the observed percentage effect of the second active ingredient at the same use rate as in the mixture.

redroot pigweed (AMARE) = assay: Test 1 field trial, preemergence; format: in vivo, Amaranthus retroflexus; conditions: g a.i./ha: Atrazine 1680, S-Metolachlor 1870
Description: as §1, §2

giant foxtail (SETFA) [1] = assay: Test 1 field trial, preemergence; format: in vivo, Setaria faberi; conditions: g a.i./ha: Atrazine 1680, S-Metolachlor 1870
Description: as §1, §2

field pennycress (THLAR) [2] = assay: Test 1 field trial, preemergence; format: in vivo, Thlaspi arvense; conditions: 28 DAA; g a.i./ha: Atrazine 1680; S-Metolachlor 1870
Description: as §1, §2

field pennycress (THLAR) [3] = assay: Test 5 field trial, postemergence; format: in vivo, Thlaspi arvense; conditions: atrazine 1120, glufosinate 470 or glyphosate 1120 g a.i./ha alone
corn (ZEAMD) = assay: Test 6 field trial, postemergence; format: in vivo, Zea mays ssp. indentata; conditions: 1120 g a.i./ha
[4] = test system: Pennsylvania smartweed (POLPY); assay: Test 6 field trial, postemergence; format: in vivo, Polygonum pensylvanicum; conditions: 1120 g a.i./ha
common ragweed (AMBEL) [5] = assay: Test 8 field trial, preemergence; format: in vivo, Ambrosia artemisiifolia; conditions: g a.i./ha: Cpd 2 100, Atrazine 1680, S-Metolachlor 1870
Description: (§3) Corn seeds (hybrid ‘Pioneer 31G96’) were planted in mid spring season, 3.8 cm deep in a clay loam soil having 2% organic matter and a pH of 6.6. Plots were 6.1 m long by 3.0 m wide with rows spaced 76 cm apart. Seeds were spaced 15 cm apart within the rows. The field was managed using conventional tillage practices. […] A few of the weed species could not be evaluated at every timing. […] Results are the means of the three replicates.

[6] = test system: ivyleaf morningglory (IPOHE); assay: Test 8 field trial, preemergence; format: in vivo, Ipomoea hederacea; conditions: g a.i./ha: Cpd 2 100, Atrazine 1680, S-Metolachlor 1870
Description: as §3

giant foxtail (SETFA) [7] = assay: Test 8 field trial, preemergence; format: in vivo, Setaria faberi; conditions: g a.i./ha: Cpd 2 100, Atrazine 1680, S-Metolachlor 1870
Description: as §3

common ragweed (AMBEL) [8] = assay: Test 10 field trial, preemergence; format: in vivo, Ambrosia artemisiifolia; conditions: 28 DAA; g a.i./ha: Cpd 2 100, Atrazine 1680, S-Metolachlor 1870
Description: (§4) Corn seeds (hybrid ‘Pioneer 33P65 RR’) were planted in mid spring season, 2.5 cm deep in a silt loam soil. Plots were 9.1 m long by 3.0 m wide with rows spaced 76 cm apart. The field was managed using conventional tillage practices. […] Results are the means of the three replicates.

common cocklebur (XANST) = assay: Test 10 field trial, preemergence; format: in vivo, Xanthium strumarium ssp. strumarium; conditions: 28 DAA; g a.i./ha: Cpd 2 100, Atrazine 1680, S-Metolachlor 1870
Description: as §4

Surinam grass (BRADC) = assay: Test 11 field trial, preemergence; format: in vivo, Brachiaria decumbens; parameters: scale not given here; conditions: atrazine 1500 or metolachlor 2500 g a.i./ha alone
Description: (§5) Corn seeds (hybrid ‘Pioneer 3041’) were planted in mid spring season, 5 cm deep in a clay soil having 2.6% organic matter and a pH of 5.6. Plots were 8 m long by 1.5 m wide with rows spaced 80 cm apart. Seeds were spaced 15 cm apart within the rows. The field was managed using conventional tillage practices. […] Treatments consisted of Compound 2 or
(§6) Goosegrass was not evaluated 16 or 91 days after application.

[9] = test system: tropical spiderwort (COMBE); assay: Test 11 field trial, preemergence; format: in vivo, Commelina benghalensis; parameters: scale not given here; conditions: atrazine 1500 or metolachlor 2500 g a.i./ha alone
Description: as §5, §6

## CCNc1nc(Cl)nc(NC(C)C)n1 [Atrazine, atrazine, reference compound]
Velvetleaf (ABUTH); 28 DAA
  ABUTH Obs: 75
Velvetleaf (ABUTH); 56 DAA
  ABUTH Obs: 0
Redroot pigweed (AMARE); 28 DAA
  AMARE Obs: 100
Redroot pigweed (AMARE); 56 DAA
  AMARE Obs: 93
Giant foxtail (SETFA) [1]; 28 DAA
  SETFA Obs: 93
Giant foxtail (SETFA) [1]; 56 DAA
  SETFA Obs: 0
Field pennycress (THLAR) [2]
  THLAR Obs: 93
Field pennycress (THLAR) [3]; 16 DAA
  THLAR Obs: 95%
Field pennycress (THLAR) [3]; 31 DAA
  THLAR Obs: 100%
Corn (ZEAMD); 14 DAA
  ZEAMD Obs: 0%
Corn (ZEAMD); 28 DAA
  ZEAMD Obs: 0%
[4]; 14 DAA
  POLPY Obs: 73%
[4]; 28 DAA
  POLPY Obs: 83%
Common ragweed (AMBEL) [5]; 19 DAA
  AMBEL Obs: 83%
Common ragweed (AMBEL) [5]; 29 DAA
  AMBEL Obs: 98%
Common ragweed (AMBEL) [5]; 56 DAA
  AMBEL Obs: 100%
[6]; 19 DAA
  IPOHE Obs: 45%
[6]; 29 DAA
  IPOHE Obs: 100%
[6]; 56 DAA
  IPOHE Obs: 95%
Giant foxtail (SETFA) [7]; 19 DAA
  SETFA Obs: 60%
Giant foxtail (SETFA) [7]; 29 DAA
  SETFA Obs: 88%
Giant foxtail (SETFA) [7]; 56 DAA
  SETFA Obs: 67%
Common ragweed (AMBEL) [8]
  AMBEL Obs: 95%
Common cocklebur (XANST)
  XANST Obs: 40%
Surinam grass (BRADC); 16 DAA
  BRADC Obs: 40
Surinam grass (BRADC); 30 DAA
  BRADC Obs: 20
Surinam grass (BRADC); 44 DAA
  BRADC Obs: 0
Surinam grass (BRADC); 62 DAA
  BRADC Obs: 0
Surinam grass (BRADC); 91 DAA
  BRADC Obs: 0
[9]; 16 DAA
  COMBE Obs: 99
[9]; 30 DAA
  COMBE Obs: 100
[9]; 44 DAA
  COMBE Obs: 100
[9]; 62 DAA
  COMBE Obs: 97
[9]; 91 DAA
  COMBE Obs: 95
